{"source": "PubChem BioAssay AID256", "about": "(DTP/NCI, 2004)", "tested_on": "CD2F1 mice, L1210 leukemia ip, survival T/C", "experiment": "NCI In Vivo Anticancer Drug Screen. Data for tumor model L1210 Leukemia (intraperitoneal) in CD2F1 (CDF1) mice", "conditions": "higher = longer survival", "outline": "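Ratio T/C, where T is the treated-group value and C the vehicle-dosed control value, from mice implanted with a transplantable tumor.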", "key": {"[1]": {"conditions": "endpoint: mean survival time, dose: 100.0 mg/kg/injection, schedule: Q04DX003 (ip), vehicle: saline with Tween-80"}, "[2]": {"conditions": "endpoint: mean survival time, dose: 200.0 mg/kg/injection, schedule: Q04DX003 (ip), vehicle: saline with Tween-80"}, "[3]": {"conditions": "endpoint: mean survival time, dose: 400.0 mg/kg/injection, schedule: Q04DX003 (ip), vehicle: saline with Tween-80"}, "[4]": {"conditions": "endpoint: mean survival time, dose: 100.0 mg/kg/injection, schedule: Q04DX002 (ip), vehicle: saline with Tween-80"}, "[5]": {"conditions": "endpoint: mean survival time, dose: 200.0 mg/kg/injection, schedule: Q04DX002 (ip), vehicle: saline with Tween-80"}, "[6]": {"conditions": "endpoint: mean survival time, dose: 400.0 mg/kg/injection, schedule: Q04DX002 (ip), vehicle: saline with Tween-80"}}, "note": "Toxic doses and inconclusive results are not listed. Non-standard residues stand in square brackets, D forms with d. Residues, ends and D or L forms follow the SMILES beside them. *: point of attachment. Cbz = O=C(OCc1ccccc1)*; Dha = C=C(N)C(=O)O", "data": [{"smiles": "COC1=C(N)C(=O)c2nc(-c3nc(C(=O)O)c(C)c(-c4ccc(OC)c(OC)c4O)c3N)ccc2C1=O", "values": [{"measurement": "T/C", "setting": "endpoint: mean survival time, dose: 0.25 mg/kg/injection, schedule: Q01DX009 (ip), vehicle: saline with Tween-80", "result": "117 % of control"}, {"measurement": "T/C", "setting": "endpoint: mean survival time, dose: 0.5 mg/kg/injection, schedule: Q01DX009 (ip), vehicle: saline with Tween-80", "result": "100 % of control"}, {"measurement": "T/C", "setting": "endpoint: mean survival time, dose: 0.5 mg/kg/injection, schedule: Q04DX003 (ip), vehicle: saline with Tween-80", "result": "118 % of control"}, {"measurement": "T/C", "setting": "endpoint: mean survival time, dose: 1.0 mg/kg/injection, schedule: Q04DX003 (ip), vehicle: saline with Tween-80", "result": "105 % of control"}]}, {"smiles": "OC(c1ccccc1)(c1ccccc1)c1ccccc1", "values": [{"measurement": "T/C", "setting": "[1]", "result": "101 % of control"}, {"measurement": "T/C", "setting": "[2]", "result": "98 % of control"}, {"measurement": "T/C", "setting": "[3]", "result": "98 % of control"}]}, {"smiles": "C=CC1CC(=O)N1Cc1ccccc1", "note": "(configuration not stated)", "values": [{"measurement": "T/C", "setting": "[1]", "result": "97 % of control"}, {"measurement": "T/C", "setting": "[2]", "result": "92 % of control"}, {"measurement": "T/C", "setting": "[3]", "result": "92 % of control"}]}, {"smiles": "O=c1c2ccccc2on1-c1ncnc2nc[nH]c12", "values": [{"measurement": "T/C", "setting": "endpoint: mean survival time, dose: 12.5 mg/kg/injection, schedule: Q01DX005 (ip), vehicle: other", "result": "105 % of control"}, {"measurement": "T/C", "setting": "endpoint: mean survival time, dose: 25.0 mg/kg/injection, schedule: Q01DX005 (ip), vehicle: other", "result": "113 % of control"}, {"measurement": "T/C", "setting": "endpoint: mean survival time, dose: 50.0 mg/kg/injection, schedule: Q01DX005 (ip), vehicle: other", "result": "111 % of control"}, {"measurement": "T/C", "setting": "endpoint: mean survival time, dose: 100.0 mg/kg/injection, schedule: Q01DX005 (ip), vehicle: other", "result": "95 % of control"}]}, {"smiles": "O=Cc1cc(Cl)c(O)c(Cl)c1", "values": [{"measurement": "T/C", "setting": "endpoint: mean survival time, dose: 100.0 mg/kg/injection, schedule: Q04DX003 (ip), vehicle: Klucel (hydroxypropylcellulose) (HPC)", "result": "94 % of control"}, {"measurement": "T/C", "setting": "endpoint: mean survival time, dose: 200.0 mg/kg/injection, schedule: Q04DX003 (ip), vehicle: Klucel (hydroxypropylcellulose) (HPC)", "result": "100 % of control"}]}, {"smiles": "Cc1ccc(C)c(OC(=O)Nc2cccc3ccccc23)c1", "values": [{"measurement": "T/C", "setting": "[4]", "result": "91 % of control"}, {"measurement": "T/C", "setting": "[5]", "result": "91 % of control"}, {"measurement": "T/C", "setting": "[6]", "result": "91 % of control"}]}, {"smiles": "C=C(NC(=O)CNC(=O)OCc1ccccc1)C(=O)O", "note": "(Cbz-Gly-[Dha]-OH)", "values": [{"measurement": "T/C", "setting": "endpoint: mean survival time, dose: 50.0 mg/kg/injection, schedule: Q04DX002 (ip), vehicle: saline with Tween-80", "result": "102 % of control"}, {"measurement": "T/C", "setting": "[4]", "result": "98 % of control"}, {"measurement": "T/C", "setting": "[5]", "result": "96 % of control"}, {"measurement": "T/C", "setting": "[6]", "result": "94 % of control"}]}, {"smiles": "CCOC(=O)CCCSc1n[nH]c(=O)[nH]c1=O", "values": [{"measurement": "T/C", "setting": "endpoint: mean survival time, dose: 12.5 mg/kg/injection, schedule: Q01DX005 (ip), vehicle: distilled water + Tween-80", "result": "100 % of control"}, {"measurement": "T/C", "setting": "endpoint: mean survival time, dose: 25.0 mg/kg/injection, schedule: Q01DX005 (ip), vehicle: distilled water + Tween-80", "result": "102 % of control"}, {"measurement": "T/C", "setting": "endpoint: mean survival time, dose: 50.0 mg/kg/injection, schedule: Q01DX005 (ip), vehicle: distilled water + Tween-80", "result": "96 % of control"}, {"measurement": "T/C", "setting": "endpoint: mean survival time, dose: 100.0 mg/kg/injection, schedule: Q01DX005 (ip), vehicle: distilled water + Tween-80", "result": "91 % of control"}, {"measurement": "T/C", "setting": "endpoint: mean survival time, dose: 200.0 mg/kg/injection, schedule: Q01DX005 (ip), vehicle: distilled water + Tween-80", "result": "92 % of control"}]}, {"smiles": "O=[N+]([O-])c1ccc(N/N=C(\\CI)c2ccccc2)c([N+](=O)[O-])c1", "values": [{"measurement": "T/C", "setting": "endpoint: mean survival time, dose: 100.0 mg/kg/injection, schedule: Q04DX003 (ip), vehicle: saline sonified", "result": "97 % of control"}, {"measurement": "T/C", "setting": "endpoint: mean survival time, dose: 200.0 mg/kg/injection, schedule: Q04DX003 (ip), vehicle: saline sonified", "result": "109 % of control"}, {"measurement": "T/C", "setting": "endpoint: mean survival time, dose: 400.0 mg/kg/injection, schedule: Q04DX003 (ip), vehicle: saline sonified", "result": "108 % of control"}]}, {"smiles": "O=C(C=C(C(F)(F)F)C(F)(F)F)c1ccccc1[N+](=O)[O-]", "values": [{"measurement": "T/C", "setting": "endpoint: mean survival time, dose: 12.5 mg/kg/injection, schedule: Q04DX003 (ip), vehicle: other", "result": "103 % of control"}, {"measurement": "T/C", "setting": "endpoint: mean survival time, dose: 25.0 mg/kg/injection, schedule: Q04DX003 (ip), vehicle: other", "result": "109 % of control"}]}, {"smiles": "O=C1N(CC2CO2)CCN1CC1CO1", "note": "(configuration not stated)", "values": [{"measurement": "T/C", "setting": "endpoint: median survival time, dose: 12.5 mg/kg/injection, schedule: Q01DX009 (ip), vehicle: saline", "result": "123 % of control"}, {"measurement": "T/C", "setting": "endpoint: median survival time, dose: 50.0 mg/kg/injection, schedule: Q01DX009 (ip), vehicle: saline", "result": "157 % of control"}, {"measurement": "T/C", "setting": "endpoint: median survival time, dose: 100.0 mg/kg/injection, schedule: Q01DX009 (ip), vehicle: saline", "result": "174 % of control"}, {"measurement": "T/C", "setting": "endpoint: median survival time, dose: 200.0 mg/kg/injection, schedule: Q01DX009 (ip), vehicle: saline", "result": "277 % of control"}, {"measurement": "T/C", "setting": "endpoint: median survival time, dose: 400.0 mg/kg/injection, schedule: Q01DX009 (ip), vehicle: saline", "result": "86 % of control"}]}, {"smiles": "Cn1c(=O)c2c(ncn2CCCNCC(O)c2ccc(O)c(O)c2)n(C)c1=O", "note": "(configuration not stated)", "values": [{"measurement": "T/C", "setting": "endpoint: mean survival time, dose: 12.5 mg/kg/injection, schedule: Q01DX005 (ip), vehicle: water", "result": "98 % of control"}, {"measurement": "T/C", "setting": "endpoint: mean survival time, dose: 25.0 mg/kg/injection, schedule: Q01DX005 (ip), vehicle: water", "result": "98 % of control"}, {"measurement": "T/C", "setting": "endpoint: mean survival time, dose: 50.0 mg/kg/injection, schedule: Q01DX005 (ip), vehicle: water", "result": "94 % of control"}, {"measurement": "T/C", "setting": "endpoint: mean survival time, dose: 100.0 mg/kg/injection, schedule: Q01DX005 (ip), vehicle: water", "result": "100 % of control"}]}, {"smiles": "O=[N+]([O-])c1cc2c(c([N+](=O)[O-])c1)OCOC2", "values": [{"measurement": "T/C", "setting": "endpoint: mean survival time, dose: 100.0 mg/kg/injection, schedule: Q01DX009 (ip), vehicle: saline with Tween-80", "result": "105 % of control"}, {"measurement": "T/C", "setting": "endpoint: mean survival time, dose: 200.0 mg/kg/injection, schedule: Q01DX009 (ip), vehicle: saline with Tween-80", "result": "96 % of control"}]}, {"smiles": "CCC(CO)(CO)[N+](=O)[O-]", "values": [{"measurement": "T/C", "setting": "endpoint: mean survival time, dose: 100.0 mg/kg/injection, schedule: Q01DX009 (ip), vehicle: saline", "result": "100 % of control"}, {"measurement": "T/C", "setting": "endpoint: mean survival time, dose: 200.0 mg/kg/injection, schedule: Q01DX009 (ip), vehicle: saline", "result": "100 % of control"}, {"measurement": "T/C", "setting": "endpoint: mean survival time, dose: 400.0 mg/kg/injection, schedule: Q01DX009 (ip), vehicle: saline", "result": "94 % of control"}]}]}
